According to ChEMBL document CHEMBL1201862, “PubChem BioAssay data set” (2004):
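Values below derive from 48-hour exposures of cells grown in 96-well plates, with endpoints linearly interpolated between the two concentrations bracketing the appropriate inhibition level. GI50: concentration for 50% inhibition of growth.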 Calls of active or inactive are those of the source. No stated cut-off is given here; in the data, active = GI50 up to about 1.1 µM and inactive = higher.

How the values were obtained:
Assay in all cases: DTP human tumour cell line panel, 48 h
BT-549 = test system: BT-549
SF-295 = test system: SF-295
IGROV-1 = test system: IGROV-1
DU-145 = test system: DU-145
COLO 205 = test system: COLO 205
SK-MEL-2 = test system: SK-MEL-2
A549 = test system: A549
SR = test system: SR
RPMI-8226 = test system: RPMI-8226
OVCAR-8 = test system: OVCAR-8
MCF7 = test system: MCF7
PC-3 = test system: PC-3
EKVX = test system: EKVX
OVCAR-5 = test system: OVCAR-5
SK-MEL-28 = test system: SK-MEL-28
HT-29 = test system: HT-29
HOP-92 = test system: HOP-92
OVCAR-3 = test system: OVCAR-3
NCI/ADR-RES = test system: NCI/ADR-RES
HCT-116 = test system: HCT-116

Measured: GI50

CCOC(=O)Cc1nn2c(=O)cc(C)nc2s1
inactive: BT-549 > 100 µM | SF-295 > 100 µM | IGROV-1 > 100 µM | DU-145 > 100 µM | COLO 205 > 100 µM | SK-MEL-2 > 100 µM | A549 > 100 µM | SR > 100 µM | RPMI-8226 > 100 µM | OVCAR-8 > 100 µM | MCF7 > 100 µM | PC-3 > 100 µM | EKVX > 100 µM | OVCAR-5 > 100 µM | SK-MEL-28 > 100 µM | HT-29 > 100 µM | HOP-92 > 100 µM | OVCAR-3 > 100 µM | NCI/ADR-RES > 100 µM | HCT-116 > 100 µM

O=C(CSc1ncnc2[nH]cnc12)c1ccccc1
inactive: BT-549 > 100 µM | SF-295 > 100 µM | IGROV-1 > 100 µM | DU-145 > 100 µM | COLO 205 > 91 µM | SK-MEL-2 > 43.2 µM | A549 > 100 µM | SR 92.5 µM | RPMI-8226 > 64.3 µM | OVCAR-8 > 100 µM | MCF7 > 100 µM | PC-3 > 100 µM | EKVX > 100 µM | OVCAR-5 > 57.1 µM | SK-MEL-28 > 100 µM | HT-29 > 100 µM | HOP-92 50.2 µM | OVCAR-3 > 100 µM | NCI/ADR-RES 96.4 µM | HCT-116 > 100 µM

[N-]=[N+]=Nc1ccc2c(c1)Sc1ccccc1N2CCCCN1CCN(Cc2ccc(C(=O)c3ccccc3)cc2)CC1
inactive: BT-549 > 20.7 µM | SF-295 23.4 µM | IGROV-1 > 22.3 µM | DU-145 > 100 µM | COLO 205 1.79 µM | SK-MEL-2 2.65 µM | A549 > 92.5 µM | SR 3 µM | RPMI-8226 3.86 µM | OVCAR-8 3.4 µM | MCF7 2.64 µM | PC-3 3.35 µM | EKVX 6.67 µM | OVCAR-5 4.16 µM | SK-MEL-28 1.96 µM | HT-29 1.46 µM | HOP-92 2.29 µM | OVCAR-3 3.72 µM | NCI/ADR-RES 3.68 µM | HCT-116 3.43 µM

COC(=O)C(=O)C(C(=O)C(=O)Nc1cc(C)ccc1C)c1nc2ccccc2nc1O (stereo not given)
inactive: BT-549 > 100 µM | SF-295 > 100 µM | IGROV-1 67 µM | DU-145 > 100 µM | COLO 205 > 100 µM | SK-MEL-2 > 100 µM | A549 85.3 µM | SR 30.3 µM | RPMI-8226 19.6 µM | OVCAR-8 > 100 µM | MCF7 > 100 µM | PC-3 > 100 µM | EKVX 26.6 µM | OVCAR-5 > 100 µM | SK-MEL-28 > 100 µM | HT-29 > 100 µM | HOP-92 26.7 µM | OVCAR-3 > 100 µM | NCI/ADR-RES > 100 µM | HCT-116 > 100 µM
